Reference: patent US6884593B1, “Method of identifying properties of substance with respect to human prostaglandin D2 receptors” (BML, Inc., priority 1999, dated 2005)

How the values were obtained:
[1] = molecular target: T1, DP receptor (Homo sapiens, UniProt Q13258); assay: [^3H]PGD2 binding assay, cells expressing DP receptor (KD36); conditions: [^3H]PGD2 binding in the presence of unlabeled prostanoids, KD36, FIG. 3
T1 construct: the coding region of the human DP receptor was amplified through PCR; expressed in transfected cells; cDNA from human small intestine poly(A)+ RNA
T1 sequence (Q13258 1-359): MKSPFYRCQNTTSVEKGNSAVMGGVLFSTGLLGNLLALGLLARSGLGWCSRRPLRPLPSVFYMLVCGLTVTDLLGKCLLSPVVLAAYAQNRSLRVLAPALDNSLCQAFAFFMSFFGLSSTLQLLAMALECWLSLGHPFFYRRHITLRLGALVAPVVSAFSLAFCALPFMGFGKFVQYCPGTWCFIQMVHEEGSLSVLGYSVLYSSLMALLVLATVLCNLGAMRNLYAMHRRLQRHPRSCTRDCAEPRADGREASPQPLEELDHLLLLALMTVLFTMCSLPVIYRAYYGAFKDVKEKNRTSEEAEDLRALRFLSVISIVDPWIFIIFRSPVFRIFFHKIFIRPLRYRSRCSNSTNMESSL
Experimental: Human DP receptor cDNA was cloned through RT-PCR on the basis of the nucleotide sequence of human DP receptor cDNA described in Boie, Y. et al., J. Biol. Chem., 270: 18910-18916, 1995 and Japanese Kohyo (PCT) Patent Publication No. 10-507930. Specifically, the cDNA was prepared by use, as an template, of poly(A)+RNA (product of Clonetech) of the human small intestine in which the human DP receptor is highly expressed, and by use of oligo (dT) primer (product of Pharmacia) and MMLV reverse transcriptase (product of Pharmacia). Subsequently, the coding region of the human DP receptor was amplified through PCR (35 heat cycles, each cycle consisting of heating at 94° C. for 1 minute, at 68° C. for 1 minute, and at 72° C. for 1 minute) by use of a forward primer (5′-[…]: SEQ No. 1) containing a restriction enzyme HindIII site, and a reverse primer (5′-[…]: SEQ No. 2) containing an XbaI site. The resultant PCR product was digested with HindIII and XbaI, and subcloned into the HindIII/XbaI site of pRc/CMV. The thus-prepared human DP receptor expression plasmid was introduced into a K562 cell in a manner similar to that described in Example 1, and subjected to selection by use of geneticin and to cloning. The proliferated clones were subjected to the below-described [^3H]PGD2 binding assay, to thereby obtain clone KD36 in which the DP receptor is highly expressed.
(§1) Each of KB8 cells, KD36 cells, and K562/neo cells was resuspended in Hank's balanced salt solution (HBSS, product of Gibco BRL) so as to attain a concentration of 3×10^7 cells/ml. The resultant suspension (0.1 ml) was placed in a 0.5-ml microtube, and then cooled on ice. Subsequently, 1 nM of [^3H]PGD2 (product of Amersham) which had been diluted with HBSS was added to the suspension, to thereby allow reaction to proceed on ice for one hour. The reacted cells were placed carefully onto RPMI1640 medium (1 ml) containing 1 M sucrose and 10% fetal bovine serum, the medium having been placed in an 1.5-ml microtube and cooled by ice, and subjected to centrifugation (10,000 revolutions, three minutes) by use of a micro-centrifuge. […] The radiation activity of the cells bound to [^3H]PGD2 was measured by use of a liquid scintillation counter. The radiation activity of the cells when measured, in a manner similar to that described above, in the presence of unlabeled PGD2 (concentration: 200 times or more that of [^3H]PGD2) was used as an index of non-specific binding. […] In contrast, the specific binding of [^3H]PGD2 to KB8 or KD36 is observed.
(§2) [^3H]PGD2 binding assay described in Example 3 was carried out in the presence of various unlabeled prostanoids (products of Cayman), and the binding affinity of human CRTH2 to various prostanoids was evaluated.

[2] = molecular target: T2, human CRTH2 (Homo sapiens, UniProt Q9Y5Y4); assay: [^3H]PGD2 binding assay, cells expressing human CRTH2 (KB8); conditions: for order of the degree of the binding affinity of prostanoids to human CRTH2: [^3H]PGD2 binding in the presence of unlabeled prostanoids, KB8, FIG. 3; for degree of binding affinity of human CRTH2 compared with that of the DP receptor: comparison human CRTH2 vs DP receptor
T2 construct: A transformant into which full-length human CRTH2 cDNA is integrated is deposited as B19 cDNA; expressed in transfected cells
T2 sequence (Q9Y5Y4 1-395): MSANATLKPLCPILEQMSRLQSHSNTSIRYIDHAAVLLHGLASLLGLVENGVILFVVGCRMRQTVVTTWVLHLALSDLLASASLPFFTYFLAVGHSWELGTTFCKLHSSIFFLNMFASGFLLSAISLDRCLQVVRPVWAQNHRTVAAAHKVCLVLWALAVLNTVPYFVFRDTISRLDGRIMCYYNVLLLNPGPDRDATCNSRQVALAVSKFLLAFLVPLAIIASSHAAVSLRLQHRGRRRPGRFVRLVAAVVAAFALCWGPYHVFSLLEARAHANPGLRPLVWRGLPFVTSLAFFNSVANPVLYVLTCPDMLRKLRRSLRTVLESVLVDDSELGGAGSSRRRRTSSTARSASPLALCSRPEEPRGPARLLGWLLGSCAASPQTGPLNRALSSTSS
Experimental: Human CRTH2 gene expression plasmid pRc/B19 was prepared by means of a method described in detail in Nagata, K. et al., J. Immunol., 162: 1278-1286, 1999 and Japanese Sai-Kohyo (PCT) Patent Publication WO 97/46677. A transformant into which full-length human CRTH2 cDNA is integrated is deposited as B19 cDNA in National Institute of Bioscience and Human-Technology, Agency of Industrial Science and Technology (deposit number: FERM P-15616), and B19 cDNA can be used after approval is obtained from the depositor. When B19 cDNA is digested with restriction enzymes HindIII and XbaI, and is subcloned into the HindIII/XbaI site of plasmid pRc/CMV (product of Invitrogen), the same expression plasmid as the aforementioned pRc/B19 can be prepared. Through electroporation, the pRc/B19 and control plasmid pRc/CMV were genetically introduced into K562 cells, a human erythroblastic leukemia cell strain, and were subjected to selective culture for two to three weeks in the presence of 400 μg/ml of geneticin (product of SIGMA). Among the K562 cells into which the pRc/B19 had been genetically introduced, the survived cells were added to a 96-well microplate (0.3 cells per well), and then cultured for two to three weeks. The proliferated cell clones were subjected to fluorescence staining by use of an anti human CRTH2 antibody (Nagata, K. et al., J. Immunol., 162: 1278-1286, 1999), and clone KB8, in which human CRTH2 was highly expressed, was obtained. The K562 cells into which the control pRc/CMV had been genetically introduced were selected by use of geneticin, and then culture of the resultant cells was continued while polyclones were present (hereinafter the cells will be referred to as “K562/neo”).
as §1, §2

[3] = molecular target: T2, human CRTH2; assay: Down modulation of human CRTH2 molecules from cell surface, KB8 cells; assay type: cell-based; conditions: 37° C. for one hour, flow cytometer, FIG. 4
Experimental: KB8 cells were suspended in RPMI1640 medium containing 10% fetal bovine serum so as to attain a concentration of 10^6 cells/ml, and cultured at 37° C. for one hour in the presence of a test sample. After completion of culturing, the cells were washed twice with HBSS through centrifugation, to thereby remove cell-free part of the sample. Subsequently, the resultant cells were resuspended in HBSS containing 0.5% bovine serum albumin and 0.05% NaN3, and the resultant suspension was subjected to fluorescence staining by use of anti CRTH2 monoclonal antibody HM16 and phycoerythrin-labeled anti rat immunoglobulin antibody. The average fluorescence intensity of the stained cells was measured by use of a flow cytometer (product of Becton Dickinson), and the fluorescence intensity of the cells treated with the sample was compared with that of non-treated cells (control).

[4] = molecular target: T2, human CRTH2; assay: Intracellular calcium assay, KB8 cells; assay type: cell-based; conditions: treatment with PGD2 (some nM), Fura-2AM
Experimental: (§3) Each of KB8 cells, KD36 cells, and K562/neo cells was suspended in RPMI1640 medium containing 10% fetal bovine serum so as to attain a concentration of 5×10^6 cells/ml, and cultured at 37° C. for one hour in the presence of 5 μM of Fura-2AM (product of Dojindo). After completion of culturing, the cells were washed three times with HBSS through centrifugation, to thereby remove free Fura-2AM. Subsequently, the resultant cells were resuspended in HBSS containing 0.1% bovine serum albumin so as to attain a concentration of 10^6 cells/ml. The resultant suspension was placed in a quartz cell (volume: 0.4 ml), and the cell was set in spectrophotometer LS50B (product of PerkinElmer). After a sample was added to the suspension, the time-course change of the ratio of fluorescence intensities (510 nm) at excitation wavelengths of 340 nm and 380 nm was obtained through calculation by use of FL-Winlab software (product of PerkinElmer).

[5] = test system: K562/neo cells; assay: Intracellular calcium assay, control K562/neo cells; assay type: cell-based, human; conditions: treatment with PGD2 (0.25-250 nM), Fura-2AM
Experimental: as §3

[6] = molecular target: T1, DP receptor; assay: Intracellular calcium assay, KD36 cells; assay type: cell-based; conditions: treatment with PGD2 (some nM), Fura-2AM
Experimental: as §3

Row | SMILES | order of the degree of the binding affinity of prostanoids to the DP receptor [1] | order of the degree of the binding affinity of prostanoids to human CRTH2 [2] | degree of binding affinity of human CRTH2 compared with that of the DP receptor [2] | down modulation of CRTH2 (average fluorescence intensity vs non-treated control) [3] | concentration of calcium in the cells [4] | concentration of calcium in the cells [5] | concentration of calcium in the cells [6]
1 | CCCCCC(=O)CCC1C(=O)CC(O)C1C/C=C\CCCC(=O)O (stereo not shown) [13,14-dihydro-15-keto PGD2] | PGE2>13,14-dihydro-15-keto PGD2>15-deoxydelta 12,14-PGJ2 | PGD2≧13,14-dihydro-15-keto PGD2>>prostaglandin J2 (PGJ2) | a great difference exists between human CRTH2 and the DP receptor | induce down modulation of CRTH2 significantly as compared with the control |  |  | 
2 | CCCCC/C=C/C=C1/C(=O)C=CC1C/C=C\CCCC(=O)O (stereo not shown) [15-deoxydelta 12,14-PGJ2] | 13,14-dihydro-15-keto PGD2>15-deoxydelta 12,14-PGJ2≧TXB2 | prostaglandin J2 (PGJ2)>15-deoxydelta 12,14-PGJ2≧prostaglandin E2 (PGE2) |  |  |  |  | 
3 | CCCCC[C@H](O)/C=C/[C@H]1C=CC(=O)[C@@H]1C/C=C\CCCC(=O)O [PGA2, prostaglandin A2] | TXB2≧PGA2 | prostaglandin E2 (PGE2)=prostaglandin A2 (PGA2)>>thromboxane B2 (TXB2) |  |  |  |  | 
4 | CCCCC[C@H](O)/C=C/[C@H]1C(=O)C[C@H](O)[C@@H]1C/C=C\CCCC(=O)O [PGD2, Prostaglandin D2] | PGD2=PGJ2 | PGD2≧13,14-dihydro-15-keto PGD2 | equal to that of the binding affinity of the DP receptor to PGD2 | induce down modulation of CRTH2 significantly as compared with the control | increased considerably | did not vary significantly | increased considerably
5 | CCCCC[C@H](O)/C=C/[C@H]1[C@H](O)CC(=O)[C@@H]1C/C=C\CCCC(=O)O [PGE2, prostaglandin E2] | PGJ2>>PGE2>13,14-dihydro-15-keto PGD2 | 15-deoxydelta 12,14-PGJ2≧prostaglandin E2 (PGE2)=prostaglandin A2 (PGA2) |  | does not exert such an effect |  |  | 

Now from value to compound, other results behind:

Row | order of the degree of the binding affinity of prostanoids to the DP receptor [1] | SMILES | order of the degree of the binding affinity of prostanoids to human CRTH2 [2] | degree of binding affinity of human CRTH2 compared with that of the DP receptor [2] | down modulation of CRTH2 (average fluorescence intensity vs non-treated control) [3] | concentration of calcium in the cells [4] | concentration of calcium in the cells [5] | concentration of calcium in the cells [6]
6 | PGD2=PGJ2>>PGE2 | CCCCC[C@H](O)/C=C/[C@H]1C(=O)C=C[C@@H]1C/C=C\CCCC(=O)O [PGJ2, prostaglandin J2] | 13,14-dihydro-15-keto PGD2>>prostaglandin J2 (PGJ2)>15-deoxydelta 12,14-PGJ2 |  |  |  |  | 
7 | 15-deoxydelta 12,14-PGJ2≧TXB2≧PGA2 | CCCCC[C@H](O)/C=C/[C@H]1OC(O)C[C@H](O)[C@@H]1C/C=C\CCCC(=O)O (stereo partly shown) [TXB2, thromboxane B2] | prostaglandin A2 (PGA2)>>thromboxane B2 (TXB2) |  |  |  |  | 
